Literature values, collected in patent US20140316534A1, “STENT” (Photocure ASA, priority 2011, published 2014).

System: dysplastic tissue in Barrett's esophagus
[1] = systemic application, higher doses of 20 mg/kg and 30 mg/kg

SMILES: NCC(=O)CCC(=O)O [5-ALA, 5-amino-4-oxo-pentanoic acid]
- side effects (systemic application of 20 mg/kg or more): increasing side effects at high dosages
- sensitivity for detection of dysplastic tissue [1]: increase the sensitivity
- specificity (rate of false positive fluorescence) [1]: poor
